The source of these data is patent publication US5652220A, “Encapsulation of TRH or its analog” (Takeda Chemical Industries, Ltd., priority 1986, dated 1997).

Data set [1] can be described thus: drug trapping percentage into microcapsules (amount actually incorporated vs amount charged). It counts as physicochemical. Particulars: comparison microcapsules, 53 mg TRH, w/o emulsion viscosity about 2,000 cp. The procedure: (§1) The microcapsules obtained by charging TRH in an amount of 1-20% based on PLGA and following the above procedure were tested for drug trapping percentage (percentage of amount actually incorporated into microcapsules to amount charged) and further assayed, in an in vitro dissolution test, for residual TRH in microcapsules after one day of standing in phoshpate buffer (pH 7.0) at 37° C.
(§2) For these microcapsules, the percentage of trapping of CG-3509 was determined and the residual CG-3509 in the microcapsules after one-day standing in phosphate buffer (pH 7.0) at 37° C. was assayed in an in vitro dissolution test.

The nature of data set [2]: in vitro dissolution test: residual drug in microcapsules standing in phosphate buffer (pH 7.0) at 37° C. It counts as physicochemical. The procedure: as §1
(b) 1/30M phosphate buffer (pH 7.0), 37° C. (mean for n = 2).
The microcapsules obtained by the procedure of Example 1 were examined for in vitro drug release property and for in vivo drug release property after subcutaneous administration to rats (the residual drug amount in microcapsules at the site of administration was determined).
as §2

Molecules are shown by their SMILES.

For the compound `NC(=O)[C@@H]1CCCN1C(=O)[C@H](Cc1cnc[nH]1)NC(=O)[C@@H]1CCC(=O)N1` [TRH, pyroGlu-His-ProNH2], the trapping percentage in data set [1] (4 g PLGA, TRH to PLGA 1.33%) was determined as 77%; in data set [1] (6 g PLGA, TRH to PLGA 0.88%), 98%. This compound yielded a first day release in data set [2] (Example 2, TRH 2% relative to PLGA, free form or strong acid added) of 15.8%. Further, the initial release in data set [2] (Example 2, acetic acid added, TRH 2% relative to PLGA) is 33.2%; in data set [2] (acetic acid added, TRH 5% relative to PLGA) it was 22.6%; in data set [2] (comparison microcapsules, TRH to PLGA 0.88%) it was 67%; in data set [2] (comparison microcapsules, TRH to PLGA 1.33%), 71%. Further, the “release of the first day” value in data set [2] (TRH concentration relative to PLGA 1%) is 65.7%.
